# Data from patent US11179361B2, “Methods of quantifying N2-(1-carboxyethyl)-2′-deoxy-guanosine (CEdG) and synthesis of oligonucleotides containing CEdG” (CITY OF HOPE, priority 2008, dated 2021).
# How the values were obtained:
# [1] = Stability of CEdG to acid-catalyzed depurination and sidechain isomerization; conditions: 37° C.; for racemization of the sidechain stereocenter / interconversion of isomers: acidic hydrolysis, 1 M AcOH
# Description: (§2) A 1.25 mM solution of CEdG-A, B or dG in 100 μL of 1M AcOH (pH 2.4) was stirred at 37° C. Aliquots (10 μl) were removed periodically and added to 40 μL of 2M TEAA (pH 7.0). HPLC product analyses were performed using an Alltech HS HyperPrep 100 BDS C18 8μ column. A gradient of 0 to 4% CH3CN over 5 min was followed by 6.5% CH3CN over 30 min. TEAA (pH 7) was kept constant at 50 mM. The ratio of free base (CEGuanine or Guanine) to intact nucleoside (CEdG or dG) was calculated by integration of the corresponding HPLC peaks (see inset in FIG. 4).
# (§3) Purified stereoisomers of synthetic CEdG were subjected to acidic conditions (1 M AcOH at 37° C.) and the extent of released free base and diastereomer interconversion was monitored by HPLC as a function of time.
# [2] = physchem; conditions: buffer, pH 2.4, half-life for depurination
# Description: as §2, §3
# [3] = system: DNA extracted from breast tumor or adjacent tissue; experiment: Artifactual CEdG formation during DNA isolation from human breast tumor and adjacent tissue with carbonyl scavenger; conditions: 10 mM D-penicillamine in two aliquots during cell lysis/DNA isolation and hydrolysis/dephosphorylation
# Description: Breast tumor and adjacent normal tissue were obtained from the frozen tumor bank of the City of Hope Pathology Core. A pea-sized section (˜100 mg) of tissue was minced and suspended in 1.2 mL of digestion buffer (100 mM NaCl, 10 mM Tris HCl, pH 8, 25 mM EDTA, pH 8, 0.5% SDS, 0.2 mg/mL proteinase K, 10 mM D-penicillamine) and incubated at 50° C. in a water bath for 12-18 h. DNA was then extracted using an equivalent volume of phenol/chloroform/isoamyl alcohol (25:24:1). The aqueous fraction was separated and 0.5 volumes of ammonium acetate and 2 volumes of 100% ethanol were added. The DNA was spooled, washed twice with 70% ethanol, pelleted, and resuspended in autoclaved 18.2 MΩ water. The enzymatic hydrolysis was carried out as described above.
# [4] = system: calf thymus DNA; experiment: Artifactual CEdG formation during DNA workup with carbonyl scavenger (calf thymus DNA)
# Description: (§1) Calf thymus or tissue-extracted DNA (100 μg) was dissolved in 80 μL of autoclaved 18.2 MΩ H2O containing 20 μL of sodium acetate (100 mM, pH 5.5), 20 μL of 1×TBE, 1.5 μL of 50 mM ZnCl2, and 2.37 μL of a 100 mM AG or D-P stock solution. DNA was denatured at 95° C. for 5 min on a PCR heating block and then brought to 4° C. for 5 min. After equilibration to 45° C., 1.5 μL of 10 U/μL nuclease P1 was added. Alkaline phosphatase (4 μL of 8 U/μL), 1 U of bovine phosphodiesterase, and 14 μL of 100 mM CaCl2 were added after 1 hour, and the hydrolysis/dephosphorylation was continued for another 7 hours. DNA concentrations were determined by UV spectroscopy (1 OD260=50 μg/ml) and samples were stored at −80° C. prior to MS analyses. A 5 μL aliquot of digest was diluted to 200 μL and used for quantitation of 2′-deoxyguanosine by HPLC integration using a Beckman C18 reverse phase (25 cm×4.6 mm) column (Fullerton, Calif.). Separation was achieved isocratically using a mobile phase of 6% MeOH, 0.1% acetic acid in water.
# Commercial grade calf thymus DNA was used as a model substrate for developing a protocol for CEdG quantitation in double-stranded DNA. […] Concentrations of AG from 0.5 to 50 mM were added prior to workup, and CEdG levels were measured in order to determine the optimal concentration required to achieve stable, reproducible levels. […]
# [5] = system: urinary CEdG; experiment: Urinary CEdG measurement in type 1 (streptozoticin) diabetic rats given LR-90; assay type: in vivo, Sprague-Dawley rats
# Description: All animal studies were carried out in compliance with the policies outlined in NIH Publication No. 85-23 “Guide for the Care and Use of Laboratory Animals.” Male Sprague-Dawley rats were rendered diabetic by injection of streptozoticin and maintained as previously described.^18 AGE inhibitor LR-90 was administered ad libitum at concentrations ranging from 2.5-50 mg/L. Rats were housed in metabolic cages and urine was collected over a 24 hour period with several drops of toluene to inhibit microbial growth. Urine samples were stored at −80° C. prior to LC-MS/MS analysis for CEdG. The data in FIG. 5 represent 3 replicates from n different animals: non-diabetic controls, n=6; non-diabetic treated with 50 mg/L LR-90, n=5; diabetic control, n=3. For diabetic rats treated with varying doses of LR-90: 2.5 mg/L, n=4; 10 mg/L, n=5; 25 mg/L, n=6; 50 mg/L, n=8.
# CEdG was concentrated from urine by solid phase extraction. A 1 ml strata-X-C cartridge was pre-conditioned by the sequential addition of 1 ml MeOH/CH3CN (1:1) followed by 2×1 ml 2% H3PO4. Then ^15N5-CEdG was added as an internal standard (final concentration 5 μg/ml), the sample was acidified with 10 μl of 86% H3PO4, and finally 0.4 mL of urine was introduced via suction filtration. The cartridge was then washed with sequential additions of 1 ml 0.1% H3PO4 and 1 ml MeOH and then dried under vacuum for 1 minute. Finally, CEdG/^15N5-CEdG containing fractions were eluted from the cartridge with 1 mL 3% NH4OH in MeOH:CH3CN (2:8 v/v). The eluent was evaporated to dryness in a centrifugal concentrator and reconstituted with 200 μl 0.1% formic acid prior to LC-MS/MS injection.
# CEdG quantification was performed using LC-MS/MS. Measurement of 8-oxo-dG was performed as previously described.^19 CEdG and ^15N5-CEdG (internal standard) were synthesized and purified. Measurements were performed using an Agilent 1100 Capillary LC system (Agilent Technologies, Palo Alto, Calif.) in line with a Micromass Quattro Ultima Triple Quadrupole Mass Spectrometer (Micromass, Beverly, Mass.) operating in positive-ion mode. […] The mass transitions monitored for CEdG and ^15N5-CEdG were 340.3→224.3 and 345.4→229.4 respectively. […] The lower limit of quantitation for CEdG, defined as a peak height of ≥5× baseline noise, was 0.1 ng/ml in the starting solution or 0.2 pg on column.
# A diabetic animal model was used to examine the relationship between glycemic status and CEdG levels. […] 8-oxo-dG was also measured as an indicator of oxidative stress in normal and diabetic rats; however, excreted 8-oxo-dG in diabetic animals was not statistically different (P>0.05) from controls.
# [6] = system: CEdG levels from tissue-extracted DNA; experiment: CEdG in tissue-extracted DNA from organs of Zucker fatty rats; assay type: in vivo, Zucker rat; conditions: liver, pancreas and kidney, after LR-90 treatment
# Description: as §1, with “Separation was achieved isocratically using a mobile phase of 6% MeOH, 0.1% acetic acid in water.” left out
# The Zucker rat is a morbidly obese, hyperinsulinemic model for Type 2 diabetes resulting from homozygous knockout of the leptin receptor. In order to determine whether elevated circulating glucose in the Zucker rat correlates with increased tissue DNA glycation, CEdG levels from tissue-extracted DNA were measured in selected organs and compared to lean controls and to Zucker rats treated with the glycation inhibitor LR-90. […]
structure (smiles),measurement,setting,value
"CC(Nc1nc2c(ncn2[C@H]2C[C@H](O)[C@@H](CO)O2)c(=O)[nH]1)C(=O)O (single isomer, unassigned) [CEdG-A, N^2-(1-carboxyethyl)-2′-deoxyguanosine]",half-life at 1.25 mM,"[1]; 1 M acetic acid solution, pH 2.4, half-life for depurination, 1 M AcOH (pH 2.4), HPLC",~750 min
same,racemization of the sidechain stereocenter / interconversion of isomers,[1],no interconversion
"Nc1nc2c(ncn2[C@H]2C[C@H](O)[C@@H](CO)O2)c(=O)[nH]1 [dG, 2′-deoxyguanosine]",half-life at 1.25 mM,[2],440 min
CC(C)(S)[C@@H](N)C(=O)O [D-penicillamine],artifactual CEdG formation,[3],artifactual formation was inhibited
"N=C(N)NN [AG, aminoguanidine]",measured CEdG levels after mock proteolysis and hydrolysis with scavenger,"[4]; 10 mM AG in two aliquots prior to mock lysis and hydrolysis/dephosphorylation, 80-100 CEdG/10^6 guanines without scavenger",drop in measured CEdG levels
same,adduct levels after scavenger addition prior to sample processing,"[4]; 10 mM AG, hydrolysis/dephosphorylation only, 60-66 CEdG/10^6 dG without scavenger",45-50 CEdG/10^6 guanines
"CC(Nc1nc2c(ncn2[C@H]2C[C@H](O)[C@@H](CO)O2)c(=O)[nH]1)C(=O)O (single isomer, unassigned) [CEdG-B, N^2-(1-carboxyethyl)-2′-deoxyguanosine]",half-life for depurination,"[1]; 1 M AcOH (pH 2.4), HPLC",~500 min
same,racemization of the sidechain stereocenter / interconversion of isomers,[1],no interconversion
CC(C)(Oc1ccc(NC(=O)Nc2ccc(Cc3ccc(NC(=O)Nc4ccc(OC(C)(C)C(=O)O)cc4)c(Cl)c3)cc2Cl)cc1)C(=O)O [LR-90],adduct level in urine,"[5]; diabetic rats, LR-90 25 mg/L",comparable to that of non-diabetic animals
same,decrease in CEdG titer,"[5]; diabetic rats, LR-90 ad libitum 2.5 mg/L, 24 hr urine",2.3 fold
same,reduction in CEdG with increasing concentrations,"[5]; diabetic rats, LR-90 ad libitum 2.5-50 mg/L, urine",dose dependent reduction in CEdG
same,effect on CEdG levels in normal controls,"[5]; non-diabetic rats, LR-90 at doses up to 50 mg/L",no significant effect
same,change of CEdG levels in tissue DNA,[6],net lowering of CEdG levels
